Measured values taken from article PMC7782785, “Outer-membrane-acting peptides and lipid II-targeting antibiotics cooperatively kill Gram-negative pathogens” (Communications Biology, 2021).

What was measured:
Type in all cases: cell-based
Details in all cases: checkerboard
K. pneumoniae B1945 = system: K. pneumoniae B1945
Description: (§1) For the synergy test, standard checkerboard broth microdilution assays were conducted to test the synergistic effect of combined antimicrobials using the same condition as before[51],[56]. […] The initial concentration of both peptides was their individual MIC. 50 µL fresh bacterial suspension prepared as above was added to the wells already containing the antimicrobial compound mixture to achieve 100 µL final volume per well.
(§2) The fractional inhibitory concentration (FIC) indices[57] were calculated using the formula FICI = FICa + FICb = MICac/MICa + MICbc/MICb, to determine whether the combination is additive, synergistic or antagonistic[51],[57]. The MICa and MICb is the MIC of compound A or B alone, respectively. MICac is the MIC of compound A in combination with compound B and MICbc is the MIC of compound B when it was combined with compound A. The FIC corresponds to the MIC of a compound in combination with the other compound, divided by the MIC of the compound alone. FICa is FIC of compound A while FICb is FIC of compound B. The FICI was interpreted according to EUCAST[58] as follows: synergistic, FICI ≤ 0.5; additive,0.5 < FICI ≤ 1; indifferent, 1 < FICI < 2; antagonistic, FICI ≥ 2.

[1] = system: K. pneumoniae ATCC BAA-2524
Description: as §1, §2

E. coli ATCC BAA-2452 = system: E. coli ATCC BAA-2452
Description: as §1, §2

A. baumannii B2026 = system: A. baumannii B2026
Description: as §1, §2

[2] = system: A. baumannii ATCC BAA-1605
Description: as §1, §2

E. coli ATCC 25922 = system: E. coli ATCC 25922
Description: as §1, §2

P. aeruginosa B1954 = system: P. aeruginosa B1954
Description: as §1, §2

P. aeruginosa ATCC 27853 = system: P. aeruginosa ATCC 27853
Description: as §1, §2

[3] = system: P. aeruginosa ATCC BAA-2108
Description: as §1, §2

E. coli B1927 = system: E. coli B1927
Description: as §1, §2

P. aeruginosa PA14 = system: P. aeruginosa PA14
Description: as §1, §2

A. baumannii ATCC 17978 = system: A. baumannii ATCC 17978
Description: as §1, §2

## CN[C@H](CC(C)C)C(=O)N[C@H]1C(=O)N[C@@H](CC(N)=O)C(=O)N[C@H]2C(=O)N[C@H]3C(=O)N[C@H](C(=O)N[C@H](C(=O)O)c4cc(O)cc(O)c4-c4cc3ccc4O)[C@H](O)c3ccc(c(Cl)c3)Oc3cc2cc(c3O[C@@H]2O[C@H](CO)[C@@H](O)[C@H](O)[C@H]2O[C@H]2C[C@](C)(N)[C@H](O)[C@H](C)O2)Oc2ccc(cc2Cl)[C@H]1O [Vancomycin]
K. pneumoniae B1945
  MICAB: MIC of vancomycin in combination with D-11 at the MICAC concentration: 11.04 µM
[1]
  MICAB: MIC of vancomycin in combination with D-11 at the MICAC concentration: 11.04 µM
E. coli ATCC BAA-2452
  MICAB: MIC of vancomycin in combination with D-11 at the MICAC concentration: 2.76 µM
A. baumannii B2026
  MICAB: MIC of vancomycin in combination with D-11 at the MICAC concentration: 2.76 µM
[2]
  MICAB: MIC of vancomycin in combination with D-11 at the MICAC concentration: 2.76 µM
E. coli ATCC 25922
  MICAB: MIC of vancomycin in combination with D-11 at the MICAC concentration: 5.52 µM
P. aeruginosa B1954
  MICAB: MIC of vancomycin in combination with D-11 at the MICAC concentration: 44.15 µM
P. aeruginosa ATCC 27853
  MICAB: MIC of vancomycin in combination with D-11 at the MICAC concentration: 11.04 µM
[3]
  MICAB: MIC of vancomycin in combination with D-11 at the MICAC concentration: 44.15 µM
E. coli B1927
  MICAB: MIC of vancomycin in combination with D-11 at the MICAC concentration: 5.52 µM
P. aeruginosa PA14
  MICAB: MIC of vancomycin in combination with D-11 at the MICAC concentration: 32 µM
A. baumannii ATCC 17978
  MICAB: MIC of vancomycin in combination with D-11 at the MICAC concentration: 5.52 µM
